Results taken from patent US20080119548A1, “Control Of Feeding Behavior By Changing Neuronal Energy Balance” (priority 2004, published 2008).

Legend:
[1] = test system: primary hypothalamic neurons; experiment: ATP measurement in primary hypothalamic neuron cultures; assay type: cell-based, Sprague-Dawley rats
Procedure: Hypothalami were dissected from E17 Sprague-Dawley rats (Harlan), and dissociated by trypsin (0.125%)-DNA (0.001%) solution and trituration as described by Landree, et al., J. Biol. Chem., 279, 3817-3827. Cells were plated at 6×10^4 on poly-D-lysine coated 96 well plates (Corning Inc.) in neurobasal medium supplemented with B27, 0.5 mM L-glutamine, 1% penicillin-streptomycin (Gibco-BRL). To limit nonneuronal cell proliferation, cells were treated with cytosine arabinoside furanoside (1 μM) on day 4 after plating and 6-8 days-old cells were assayed for ATP. Hypothalamic neurons were lysed in TE (100 mM Tris-HCl, pH 7.4, 4 mM DTA), and ATP levels were measured within the linear range using the ATP BioLuminescence Kit CLSII (Roche) by following the manufacture's recommendation. Data were analyzed by a Perkin-Elmer Victor^2 1420.

[2] = Changes in bodyweight 24 hr after i.c.v. injection; assay type: in vivo, mice; settings: C75 10 μg i.c.v.
Source text: (d) Changes in bodyweight 24 hr after i.c.v. injection of C75, AICAR or compound C (n=4-10). Mice were implanted with permanent stainless steel cannulae into the lateral ventricle of the brain 0.6 mm caudal to Bregma, 1.2 mm lateral to the midline, and sunk to a depth of 2.2 mm below the surface of the skull. Implanted mice were housed in individual cages and utilized for i.c.v. and i.p. injections as indicated. C75 dissolved in RPMI1640 (Gibco-BRL), AICAR (Toronto Research Chemicals Inc) or compound […], Inc.) in saline was injected i.c.v., such that desired dose could be administered in a volume of 2.5 μl, while control groups received vehicle only. Injections were done immediately preceding dark onset and food intake measurements were taken at 1 hr (0-1 hr interval), 3 hr (1-3 hr interval), and 24 hr (3-24 hr interval) after dark onset. […]. treatment groups were i.p. injected with 5 mg/kg bodyweight C75 dissolved in […] of glucose-free RPMI 1 hr before the dark onset, followed by 3 μg/2.5 μl saline i.c.v. AICAR immediately preceding the dark onset. Control groups received 200 μl of glucose free RPMI 1 hr before lights off and 2.5 μl of saline. Administration of i.p. compound C (10 or 30 mg/kg bodyweight) or C75 (10 mg/kg bodyweight) was followed by food intake measurement at the same times indicated.

liver AMPKα = experiment: Western blot of phosphorylated AMPKα in liver; assay type: in vivo, mice; settings: C75 i.p.
Procedure: (§1) Hypothalami were dissected using as landmarks the optic chiasm rostrally, and the mammillary bodies caudally to a depth of 2 mm. Dissected hypothalamic and liver tissue were immediately frozen in liquid nitrogen. Tissues were homogenized in 200 μl of lysis buffer (50 mM Tris-HCl, pH 7.5, 250 mM sucrose, 5 mM sodium pyrophosphate, 50 mM NaF, 1 mM EDTA, 1 mM EGTA, 1 mM DTT, 0.5 mM PMSF, 0.1 mM benzamidine, 50 μg/ml leupeptin, 50 μg/ml soybean trypsin inhibitor). SDS detergent was added to a final 0.2%, and lysates were boiled for 5 min. After the supernatant was harvested, protein concentration was determined by BCA kit (Bio Rad). Phosphorylation of AMPKα was determined on a 4-15% gradient SDS-polyacrylamide gel using anti-phospho-AMPKα (α1 and α2, Thr172) antibody (1:1000, Cell Signaling). Anti-AMPKαt antibody (α1 and α2, 1:1000, Cell Signaling) was used as a loading control.

pAMPKα = experiment: Immunohistochemistry of pAMPKα in the arcuate nucleus; assay type: in vivo; settings: C75-treated (24 hr) mice
Procedure: Free-floating sections were blocked in PBS containing 5% goat serum, 0.1% BSA, 0.05% Triton-X100, 1 mM NaF for 1 hr at room temperature and incubated with anti-phospho-AMPKα (α1 and α2) antibody (1:100) or anti-phospho-CREB antibody (1:500, Cell Signaling) in PBS containing 1% goat serum, 0.1% BSA, 0.05% Triton-X100, 1 mM NaF overnight at 4° C. Signal was visualized by Vectastain ABC kit (Vector).
(§2) Images of in situ hybridization and immunohistochemistry were visualized using an Axiocam HRc digital camera (Carl Zeiss) and images were acquired using Improvision Openlab software, and quantified by NIH Image program (Macro).

NPY mRNA = experiment: In situ hybridization of NPY in the arcuate nucleus; assay type: in vivo; settings: C75-treated (24 hr) mice
Procedure: Anti-sense DIG-labeled NPY riboprobe was generated from a plasmid containing the NPY gene (XM004941). […] For double fluorescent in situ hybridization, DIG-labeled riboprobe was generated from plasmid containing AMPKα2 gene (pEBGα2, a gift from L. A. Witters) for AMPKα2 (FITC) and biotin-labeled riboprobe was used for NPY (Texas Red). Sheep FITC-conjugated anti-DIG antibody (1:50, Roche) was incubated in TNB buffer (100 mM Tris-HCl pH 7.5, 150 mM NaCl, and 0.5% blocking reagent) for FITC detection. Streptavidin-Texas Red (1:50, Amersham Pharmacia), rabbit anti-Texas Red antibody (1:50, Molecular Probes), goat biotin-conjugated anti-rabbit IgG antibody (1:50, Santa Cruz Biotechnology) and streptavidin-Texas Red (1:30) were incubated serially in TNB buffer for Texas Red detection.
as §2

[3] = test system: hypothalamic AMPKα (α1 and α2); experiment: Western blot of phosphorylated AMPKα in hypothalamus; assay type: in vivo, mice; settings: for reduction of levels of pAMPKα (α1 and α2) in the hypothalamus vs vehicle: C75 i.c.v. (5 μg or 10 mg)
Procedure: as §1

Question: For C=C1C(=O)OC(CCCCCCCC)C1C(=O)O (stereo not drawn) [C75], which “neuronal ATP levels, % of control” value ([1]; 40 mg/ml C75, 30 min) is on record?
Answer: The value was 118 % of control.

Question: What about the “neuronal ATP levels, % of control” value ([1]; 40 mg/ml C75, 2 hr) of the same compound?
Answer: Its value is 128 % of control.

Question: And the bodyweight [2]?
Answer: The bodyweight was “reduction in body weight”.

Question: What about the “pAMPKα levels in the liver” value (liver AMPKα; 30 min after administration) of the same compound?
Answer: The value was “little effect”.

Question: What about the “pAMPKα levels in the liver” value (liver AMPKα; 3 hr) of the same compound?
Answer: Its value is “increased pAMPKα levels”.

Question: What about the “pAMPKa-immunoreactivity in the arcuate nucleus, % of control” value (pAMPKα) of the same compound?
Answer: The value was 12 % of control.

Question: And the “NPY mRNA expression in the arcuate nucleus, % of control” value (NPY mRNA)?
Answer: Its value is 66 % of control.

Question: And the “level of hypothalamic pAMPKα in fasted mice” value ([3]; 24 hr fasting, then C75 i.p. (10 mg/kg bodyweight), vs RPMI control)?
Answer: The value was “profoundly reduced”.

Question: What about the “levels of pAMPKα in the hypothalamus” value ([3]; C75 10 mg/kg body weight i.p., 30 min and 3 hr) of the same compound?
Answer: Its value is “significantly reduced”.

Question: And the “reduction of levels of pAMPKα (α1 and α2) in the hypothalamus vs vehicle” value ([3]; 30 min)?
Answer: Its value is “three”.

Question: What about the “reduction of levels of pAMPKα (α1 and α2) in the hypothalamus vs vehicle” value ([3]; 3 hr) of the same compound?
Answer: The value was “six-fold”.

Question: And the “hypothalamic pAMPKα level” value ([3]; i.p. C75 and i.c.v. saline, 30 min after i.c.v. injection)?
Answer: Its value is “profound decrease”.
